Data from ChEMBL document CHEMBL4371077, “Cyclic tripeptide-based potent human SIRT7 inhibitors” (Bioorg Med Chem Lett, 2019).
Residues, ends and D or L forms follow the SMILES beside them.

Key:
[1] = molecular target: T1, NAD-dependent protein deacetylase sirtuin-1 (Homo sapiens, UniProt Q96EB6); assay: Inhibition of recombinant human SIRT1 deacetylase activity using H2N-HK-[Nepsilon-acetyl-lysine]-LM-COOH as substrate measured after 10 mins by HPLC analysis
T1 sequence (Q96EB6 whole entry): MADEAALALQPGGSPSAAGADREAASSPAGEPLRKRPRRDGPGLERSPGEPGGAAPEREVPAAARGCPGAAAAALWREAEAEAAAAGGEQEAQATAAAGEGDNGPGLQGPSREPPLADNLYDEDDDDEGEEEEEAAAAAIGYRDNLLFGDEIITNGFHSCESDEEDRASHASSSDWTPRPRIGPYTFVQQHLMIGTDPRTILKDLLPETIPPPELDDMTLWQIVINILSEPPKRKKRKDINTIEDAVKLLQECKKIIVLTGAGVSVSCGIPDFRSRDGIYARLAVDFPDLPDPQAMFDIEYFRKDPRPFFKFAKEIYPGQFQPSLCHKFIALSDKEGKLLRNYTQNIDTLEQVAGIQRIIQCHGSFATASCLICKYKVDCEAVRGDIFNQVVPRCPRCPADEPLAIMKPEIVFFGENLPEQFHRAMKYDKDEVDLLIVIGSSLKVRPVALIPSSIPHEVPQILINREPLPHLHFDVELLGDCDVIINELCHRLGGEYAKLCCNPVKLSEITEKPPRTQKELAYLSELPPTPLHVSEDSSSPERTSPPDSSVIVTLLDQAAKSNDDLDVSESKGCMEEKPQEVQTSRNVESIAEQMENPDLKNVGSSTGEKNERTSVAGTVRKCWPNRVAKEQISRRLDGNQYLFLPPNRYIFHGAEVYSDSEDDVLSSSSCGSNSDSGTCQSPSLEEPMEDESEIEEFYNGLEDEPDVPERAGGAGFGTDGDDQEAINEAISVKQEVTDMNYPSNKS

[2] = molecular target: NAD-dependent protein deacylase sirtuin-6 (Homo sapiens, UniProt Q8N6T7); assay: Inhibition of demyristoylation activity of recombinant human full length N-terminal His6-tagged SIRT6 expressed in Escherichia coli using H2N-EALPK-[Nepsilon-myristoyl-lysine]-TGGPQ-CONH2 as substrate measured after 12 mins by HPLC analysis
NAD-dependent protein deacylase sirtuin-6, sequence (Q8N6T7 whole entry, the tested form may be a part): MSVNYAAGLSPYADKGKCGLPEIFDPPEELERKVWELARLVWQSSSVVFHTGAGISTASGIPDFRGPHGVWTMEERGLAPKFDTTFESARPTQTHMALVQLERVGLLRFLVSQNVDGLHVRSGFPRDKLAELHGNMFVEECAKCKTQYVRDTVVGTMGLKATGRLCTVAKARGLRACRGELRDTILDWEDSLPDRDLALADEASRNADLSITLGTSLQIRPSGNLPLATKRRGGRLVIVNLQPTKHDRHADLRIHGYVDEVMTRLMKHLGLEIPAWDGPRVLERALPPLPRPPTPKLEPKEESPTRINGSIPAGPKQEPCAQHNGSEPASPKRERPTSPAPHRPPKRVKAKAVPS

[3] = molecular target: T2, NAD-dependent protein deacetylase sirtuin-2 (Homo sapiens, UniProt Q8IXJ6); assay: Inhibition of deacetylation activity of recombinant human N-terminal His6-tagged SIRT2 (2 to 389 residues) expressed in Escherichia coli using H2N-HK-[Nepsilon-acetyl-lysine]-LM-COOH as substrate measured after 12 mins by HPLC analysis
T2 sequence (Q8IXJ6 whole entry): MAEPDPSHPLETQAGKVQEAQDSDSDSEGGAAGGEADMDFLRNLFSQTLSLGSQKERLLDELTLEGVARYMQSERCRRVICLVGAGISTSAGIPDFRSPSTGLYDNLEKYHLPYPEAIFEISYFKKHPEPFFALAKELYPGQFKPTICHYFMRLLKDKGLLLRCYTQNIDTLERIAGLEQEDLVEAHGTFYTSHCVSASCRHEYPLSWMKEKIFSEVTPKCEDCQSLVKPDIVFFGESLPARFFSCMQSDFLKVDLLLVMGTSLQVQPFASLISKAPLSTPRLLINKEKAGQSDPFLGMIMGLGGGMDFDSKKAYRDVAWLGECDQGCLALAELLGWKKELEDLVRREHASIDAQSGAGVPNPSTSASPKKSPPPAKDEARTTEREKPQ

[4] = molecular target: NAD-dependent protein deacylase sirtuin-5, mitochondrial (Homo sapiens, UniProt Q9NXA8); assay: Inhibition of desuccinylation activity of recombinant human full length N-terminal GST-tagged SIRT5 expressed in Escherichia coli using CH3CONH-AR-[Nepsilon-succinyl-lysine]-ST-CONH2 as substrate measured after 5 mins by HPLC analysis
NAD-dependent protein deacylase sirtuin-5, mitochondrial, sequence (Q9NXA8 whole entry, the tested form may be a part): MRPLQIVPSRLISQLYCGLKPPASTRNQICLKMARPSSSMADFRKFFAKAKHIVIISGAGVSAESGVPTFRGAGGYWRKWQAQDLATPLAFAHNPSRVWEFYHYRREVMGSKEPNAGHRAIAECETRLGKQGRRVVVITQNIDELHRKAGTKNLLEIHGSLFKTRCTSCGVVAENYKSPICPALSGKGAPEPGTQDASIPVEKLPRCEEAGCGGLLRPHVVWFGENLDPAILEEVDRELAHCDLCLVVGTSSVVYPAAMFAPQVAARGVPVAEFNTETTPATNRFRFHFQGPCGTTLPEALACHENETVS

[5] = molecular target: T3, NAD-dependent protein deacetylase sirtuin-3, mitochondrial (Homo sapiens, UniProt Q9NTG7); assay: Inhibition of deacetylation activity of recombinant human N-terminal His6-tagged SIRT3 (101 to 399 residues) expressed in Escherichia coli using H2N-HK-[Nepsilon-acetyl-lysine]-LM-COOH as substrate measured after 10 mins by HPLC analysis
T3 sequence (Q9NTG7 whole entry): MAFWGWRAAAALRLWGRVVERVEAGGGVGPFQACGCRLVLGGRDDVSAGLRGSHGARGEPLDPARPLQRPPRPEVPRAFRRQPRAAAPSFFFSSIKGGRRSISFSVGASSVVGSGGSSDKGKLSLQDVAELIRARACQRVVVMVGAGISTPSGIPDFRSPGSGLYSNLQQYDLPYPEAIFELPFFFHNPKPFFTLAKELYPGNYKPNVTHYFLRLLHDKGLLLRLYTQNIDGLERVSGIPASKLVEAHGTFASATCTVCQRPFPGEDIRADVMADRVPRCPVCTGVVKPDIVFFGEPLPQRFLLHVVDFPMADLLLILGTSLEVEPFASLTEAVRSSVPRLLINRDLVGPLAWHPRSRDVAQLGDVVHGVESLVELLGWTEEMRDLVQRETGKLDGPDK

[6] = molecular target: T4, NAD-dependent protein deacetylase sirtuin-7 (Homo sapiens, UniProt Q9NRC8); assay: Inhibition of tRNA-activated deacetylation activity of recombinant human full length N-terminal His6-tagged SIRT7 expressed in Escherichia coli using H2N-GGKAPR-[Nepsilon-acetyl-lysine]-QLATKA-CONH2 as substrate measured after 30 mins by HPLC analysis
T4 sequence (Q9NRC8 whole entry): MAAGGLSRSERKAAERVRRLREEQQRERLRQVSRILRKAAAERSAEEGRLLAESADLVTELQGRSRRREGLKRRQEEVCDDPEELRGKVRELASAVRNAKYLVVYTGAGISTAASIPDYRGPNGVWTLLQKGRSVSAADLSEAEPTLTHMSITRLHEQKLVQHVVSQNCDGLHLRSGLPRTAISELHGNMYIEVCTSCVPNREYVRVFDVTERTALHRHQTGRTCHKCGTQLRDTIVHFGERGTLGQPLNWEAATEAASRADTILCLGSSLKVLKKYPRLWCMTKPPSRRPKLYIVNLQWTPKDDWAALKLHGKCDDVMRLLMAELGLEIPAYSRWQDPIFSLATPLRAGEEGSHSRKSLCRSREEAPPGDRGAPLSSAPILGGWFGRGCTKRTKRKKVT

[7] = Proteolytic stability of the compound assessed as Streptomyces griseus pronase-mediated compound hydrolysis by measuring parent compound remaining after 6 mins by HPLC method; assay type: ADME; conditions: read-out: Stability

Row | IC50 [1] [µM] | IC50 [2] [µM] | IC50 [3] [µM] | IC50 [4] [µM] | IC50 [5] [µM] | IC50 [6] [µM] | remaining at 0.1 h [7] [%] | Structure (SMILES)
1 | 4.3 | 11.2 | 0.55 | > 200 | 4.2 | 5 | 89.9 | CCCCCCCCCCCCNC(=O)CCCCC[C@@H]1NC(=O)[C@H](CCCNC(=N)N)NC(=O)CNC(=O)CCC(=O)NCC(=O)NCCCC[C@@H](C(N)=O)NC1=O
2 | 1.8 | 7.9 | 10.3 | > 150 | 1.6 | 11.1 | 55.7 | CCCCCCCCCCCCNC(=S)NCCCC[C@@H]1NC(=O)[C@H](CCCNC(=N)N)NC(=O)CNC(=O)CCC(=O)NCC(=O)NCCCC[C@@H](C(N)=O)NC1=O
3 |  |  |  |  |  | 85.3 |  | CCCCCCCCCCCCCCNC(=S)NCCCC[C@@H]1NC(=O)[C@H](CCCNC(=N)N)NC(=O)CNC(=O)CCC(=O)NCC(=O)NCCCC[C@@H](C(N)=O)NC1=O
4 |  |  |  |  |  |  | 51.1 | CSCC[C@H](NC(=O)[C@H](CC(C)C)NC(=O)[C@H](CCCCNC(C)=O)NC(=O)[C@H](CCCCN)NC(=O)[C@@H](N)Cc1cnc[nH]1)C(=O)O (H-HKK(Ac)LM-OH)
